Assay results reported in patent EP1707622A1, “USE OF COMPOUNDS THAT REGULATE HDAC6 TUBULIN DEACETYLASE ACTIVITY IN THE PREPARATION OF PHARMACEUTICAL COMPOSITIONS, METHOD OF IDENTIFYING THE AFOR[…], SAID PHARMACEUTICAL COMPOUNDS AND APPLICATIONS THEREOF” (UNIVERSIDAD AUTONOMA DE MADRID CIUDAD UNIVERSITARIA …, priority 2004, dated 2005).
Where a SMILES comes first, the peptide text is derived from it. [ ]: non-standard residue; d: D form. Aoe = N[C@@H](CCCCCC(=O)[C@@H]1CO1)C(=O)O

Key:
[1] = tested on: J77 cells; experiment: CD3 clustering in the central region of the immunological synapse; assay type: cell-based, human; details: for reversion of the prevention of CD3 clustering caused by HDAC6-GFP: J77 cells transfected with HDAC6-GFP, SEE-marked Raji cells, 30 minutes at 37°C, Figures 5A and B
[2] = tested on: J77 cells; experiment: LFA-1 organization in the immunological synapse peripheral ring; assay type: cell-based, human; details: J77 cells with SEE-marked Raji cells, 30 minutes at 37°C; Figure 6 and data not shown
[3] = tested on: J77 cells; experiment: Microtubule organizing centre (MTOC) translocation assay; assay type: cell-based, human; details: for restoration of MTOC translocation in cells transfected with HDAC6-GFP: J77 cells transfected with HDAC6-GFP, SEE-pulsed Raji cells, 3 µM TSA, Figures 7A and B; for MTOC translocation: Figure 7B
Description: A 1:1 ratio of Raji cells and T cells transfected with HDAC6 were placed in contact for 15 minutes at 37°C in RPMI medium. The cell conjugates were then gently resuspended and plated on PLL-coated cover slips for 15 more minutes as previously described (Sancho et al., 2002). The cell conjugates were then fixed, permeabilized and stained for α-tubulin for the purpose of observation by immunofluorescence microscopy. The MTOC was considered to be redirected when it was in close proximity with the T cell plasma membrane, between the cell nucleus and the contact area with the antigen-presenting cell. At least 200 cell conjugates were counted in each experiment.

[4] = molecular target: T1, HDAC6 (Homo sapiens, UniProt Q9UBN7); details: CD4+ T lymphocytes and J77 cells pre-treated for 30 minutes (3µM TSA or 5 mM sodium butyrate), SEE-pulsed Raji cells; Figure 3B
T1 sequence (Q9UBN7 1-1215): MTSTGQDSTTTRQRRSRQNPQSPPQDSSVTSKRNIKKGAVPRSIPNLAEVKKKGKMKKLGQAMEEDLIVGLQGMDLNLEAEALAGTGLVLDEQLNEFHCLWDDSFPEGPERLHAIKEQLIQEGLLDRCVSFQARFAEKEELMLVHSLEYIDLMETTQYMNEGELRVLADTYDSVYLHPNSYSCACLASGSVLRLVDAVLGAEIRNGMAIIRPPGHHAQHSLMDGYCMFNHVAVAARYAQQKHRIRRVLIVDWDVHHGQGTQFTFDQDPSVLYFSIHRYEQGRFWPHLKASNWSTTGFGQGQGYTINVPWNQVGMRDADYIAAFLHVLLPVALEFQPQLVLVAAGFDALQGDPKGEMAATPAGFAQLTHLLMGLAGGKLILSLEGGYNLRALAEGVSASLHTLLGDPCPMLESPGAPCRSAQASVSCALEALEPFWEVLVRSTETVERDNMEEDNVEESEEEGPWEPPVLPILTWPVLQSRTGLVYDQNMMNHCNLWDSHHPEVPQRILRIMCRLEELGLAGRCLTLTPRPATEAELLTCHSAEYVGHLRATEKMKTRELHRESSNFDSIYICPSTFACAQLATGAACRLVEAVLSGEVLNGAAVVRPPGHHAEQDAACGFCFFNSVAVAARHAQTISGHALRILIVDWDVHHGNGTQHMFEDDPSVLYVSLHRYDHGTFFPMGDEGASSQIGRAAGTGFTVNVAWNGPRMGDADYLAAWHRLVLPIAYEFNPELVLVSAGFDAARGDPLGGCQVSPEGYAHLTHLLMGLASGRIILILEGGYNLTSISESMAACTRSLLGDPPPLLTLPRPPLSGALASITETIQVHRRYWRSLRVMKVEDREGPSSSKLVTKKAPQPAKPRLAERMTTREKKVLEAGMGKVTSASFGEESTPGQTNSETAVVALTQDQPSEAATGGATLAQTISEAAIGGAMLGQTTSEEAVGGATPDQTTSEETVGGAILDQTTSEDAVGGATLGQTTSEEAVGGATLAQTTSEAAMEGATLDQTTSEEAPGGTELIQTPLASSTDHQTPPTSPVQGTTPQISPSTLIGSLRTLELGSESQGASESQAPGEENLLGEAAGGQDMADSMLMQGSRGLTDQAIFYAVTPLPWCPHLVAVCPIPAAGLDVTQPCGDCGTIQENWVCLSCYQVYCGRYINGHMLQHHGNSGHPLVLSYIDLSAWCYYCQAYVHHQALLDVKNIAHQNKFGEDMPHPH

[5] = treatment effect in the quantitative analysis

| Compound | kinetics of CD3 clustering in the central region of the immunological synapse ([1]; J77 cells pre-treated, Raji cells marked with 1µg/ml SEE, different times, Figure 5C) | reversion of the prevention of CD3 clustering caused by HDAC6-GFP [1] | CD3 clustering ([1]; pretreated cells in contact with SEE-marked Raji cells, Figure 5B) | LFA-1 organization in the peripheral ring of the immunological synapse [2] | restoration of MTOC translocation in cells transfected with HDAC6-GFP [3] | kinetics of MTOC translocation ([3]; cell conjugates between J77 and Raji cells, different times, Figure 7C) | MTOC translocation ([3]; peripheral blood CD4+ lymphocytes with SEE-pulsed Raji cells) | MTOC translocation [3, 5] | acetylated tubulin staining in the contact site with antigen-presenting cells [4] |
| --- | --- | --- | --- | --- | --- | --- | --- | --- | --- |
| CC(/C=C/C(=O)NO)=C\[C@@H](C)C(=O)c1ccc(N(C)C)cc1 [TSA, Trichostatin A] | accelerated | reverted | slight increase | well organized | restored normal translocation | accelerates | increases |  |  |
| CCCC(=O)[O-].[Na+] [sodium butyrate] |  | not |  |  | not |  |  | did not affect | weak |
| O=C1N[C@@H](Cc2ccccc2)C(=O)N2CCC[C@@H]2C(=O)N[C@@H](CCCCCC(=O)[C@@H]2CO2)C(=O)N[C@H]1Cc1ccccc1 [trapoxin B] (cyclo(FF[dP][Aoe])) |  | not |  |  | not |  |  | did not affect |  |
